One data set addresses Rhesus PDE2A3 (Macaca mulatta, UniProt B3VTJ2). Kind of data set: PDE2 fluorescence polarization (IMAP FP) inhibition assay, rhesus PDE2A3. Format: biochemical, rhesus macaque.
The next data set concerns the target human PDE2A1 (Homo sapiens (Human), UniProt O00408). Kind of data set: PDE2 IMAP FP inhibition assay, human PDE2A1 (selectivity panel format). Type of data set: biochemical. In a few lines: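 IMAP fluorescence polarization assay; substrate 50 nM FAM-cAMP with 1000 nM cGMP, enzyme at ~20% conversion, in 10 mM Tris pH 7.2, 10 mM MgCl2, 1 mM DTT, 0.01% Tween-20. 60 min room temperature, stopped with IMAP binding reagent, 1 h, then parallel/perpendicular fluorescence read.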

For a further data set, the target named is P-glycoprotein (P-gp) (Homo sapiens (Human), UniProt P08183). Nature of the data set: P-gp transport, experimental BA/AB ratio, human. Format: in vitro ADME. As to conditions: LLC-PK1, 1 μM substrate concentration. From the text:
(§1) See Doan et al. “Passive permeability and P-glycoprotein-mediated efflux differentiate central nervous system (CNS) and non-CNS marketed drugs”, J. Pharm. Exper. […] Desirable human BA/AB ratio is less than 2.0. […] See, for example, Desai, et al. Integration of in Silico and in Vitro Tools for Scaffold Optimization during Drug Discovery: Predicting P-glycoprotein Efflux” Mol. Pharmac.

Data set [1] addresses P-glycoprotein (P-gp, rat Mdr1a) (Rattus norvegicus, UniProt Q6PSM0). Kind of data set: P-gp transport, experimental BA/AB ratio, rat LLC-Mdr1a. Format: in vitro ADME. As to conditions: LLC-PK1; rat LLC-Mdrla; 1 μM substrate concentration.
Text: as §1

[2] abbreviates: Lab B, read-out: Rhesus PDE2 Ki (nM) - Lab B.
Where [3] appears, read: Lab B, read-out: Human PDE2 Ki (nM) - Lab B.
Setting [4] is: Lab A, read-out: Rhesus PDE2 Ki (nM) - Lab A.
[5] abbreviates: Lab A, read-out: Human PDE2 Ki (nM) - Lab A.

Like-named read-outs stand apart in the source and are kept apart here.

Chain of P-glycoprotein (P-gp) (P08183 whole entry): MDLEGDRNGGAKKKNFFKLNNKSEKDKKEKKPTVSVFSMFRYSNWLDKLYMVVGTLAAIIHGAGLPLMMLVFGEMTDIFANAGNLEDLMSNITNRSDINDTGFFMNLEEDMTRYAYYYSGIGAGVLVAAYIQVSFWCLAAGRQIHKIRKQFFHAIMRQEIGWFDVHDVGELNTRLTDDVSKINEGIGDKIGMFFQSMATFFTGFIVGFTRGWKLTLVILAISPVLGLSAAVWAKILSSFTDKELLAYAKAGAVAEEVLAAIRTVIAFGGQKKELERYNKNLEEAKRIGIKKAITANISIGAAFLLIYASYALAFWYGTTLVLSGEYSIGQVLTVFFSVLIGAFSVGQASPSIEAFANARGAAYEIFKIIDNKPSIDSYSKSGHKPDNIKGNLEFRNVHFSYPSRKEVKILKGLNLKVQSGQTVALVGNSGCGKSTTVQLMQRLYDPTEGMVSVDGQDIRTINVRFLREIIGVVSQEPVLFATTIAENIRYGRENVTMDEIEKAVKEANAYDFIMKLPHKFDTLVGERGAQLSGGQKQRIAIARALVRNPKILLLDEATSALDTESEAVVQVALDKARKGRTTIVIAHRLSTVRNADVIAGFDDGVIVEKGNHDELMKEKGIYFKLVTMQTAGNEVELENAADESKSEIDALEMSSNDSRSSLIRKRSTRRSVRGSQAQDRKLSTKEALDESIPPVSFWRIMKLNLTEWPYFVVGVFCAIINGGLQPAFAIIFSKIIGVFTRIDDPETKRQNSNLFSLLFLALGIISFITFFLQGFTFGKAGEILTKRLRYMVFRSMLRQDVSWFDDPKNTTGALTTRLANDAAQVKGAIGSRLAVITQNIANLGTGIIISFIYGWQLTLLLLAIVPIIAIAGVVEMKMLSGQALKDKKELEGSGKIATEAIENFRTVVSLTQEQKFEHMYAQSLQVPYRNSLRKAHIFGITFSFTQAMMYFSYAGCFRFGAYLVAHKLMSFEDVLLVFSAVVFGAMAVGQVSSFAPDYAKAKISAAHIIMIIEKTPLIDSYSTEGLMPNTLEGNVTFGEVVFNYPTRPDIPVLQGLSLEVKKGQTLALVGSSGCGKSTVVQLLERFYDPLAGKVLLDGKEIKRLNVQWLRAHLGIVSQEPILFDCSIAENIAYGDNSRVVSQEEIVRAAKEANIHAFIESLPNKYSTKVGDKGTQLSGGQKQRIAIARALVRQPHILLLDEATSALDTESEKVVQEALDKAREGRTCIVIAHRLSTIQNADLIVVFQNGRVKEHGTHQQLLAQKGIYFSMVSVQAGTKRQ
Chain of Rhesus PDE2A3 (B3VTJ2 1-941): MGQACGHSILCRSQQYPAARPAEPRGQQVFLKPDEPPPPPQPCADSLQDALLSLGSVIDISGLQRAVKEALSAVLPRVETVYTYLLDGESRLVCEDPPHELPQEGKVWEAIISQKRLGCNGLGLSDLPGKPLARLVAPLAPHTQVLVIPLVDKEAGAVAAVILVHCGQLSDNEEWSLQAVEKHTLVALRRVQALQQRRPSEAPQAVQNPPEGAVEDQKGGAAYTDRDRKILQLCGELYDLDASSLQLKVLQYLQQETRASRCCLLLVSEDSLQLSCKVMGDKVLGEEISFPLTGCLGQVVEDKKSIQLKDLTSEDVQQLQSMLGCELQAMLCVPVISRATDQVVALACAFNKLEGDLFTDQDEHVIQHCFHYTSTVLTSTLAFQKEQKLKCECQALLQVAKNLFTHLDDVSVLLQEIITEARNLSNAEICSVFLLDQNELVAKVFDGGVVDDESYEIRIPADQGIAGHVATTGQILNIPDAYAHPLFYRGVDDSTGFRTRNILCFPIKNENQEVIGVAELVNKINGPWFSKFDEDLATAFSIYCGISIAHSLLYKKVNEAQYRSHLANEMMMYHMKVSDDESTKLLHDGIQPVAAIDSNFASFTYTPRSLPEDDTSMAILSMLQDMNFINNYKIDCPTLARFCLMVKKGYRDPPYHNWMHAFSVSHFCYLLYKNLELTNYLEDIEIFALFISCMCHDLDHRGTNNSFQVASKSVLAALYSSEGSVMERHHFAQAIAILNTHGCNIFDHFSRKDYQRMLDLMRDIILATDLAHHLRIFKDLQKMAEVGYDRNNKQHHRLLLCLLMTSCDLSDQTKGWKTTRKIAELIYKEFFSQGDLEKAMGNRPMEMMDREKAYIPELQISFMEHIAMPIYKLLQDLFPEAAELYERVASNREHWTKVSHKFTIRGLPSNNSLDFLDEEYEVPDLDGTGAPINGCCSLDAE
Chain of P-glycoprotein (P-gp, rat Mdr1a) (Q6PSM0 1-1272): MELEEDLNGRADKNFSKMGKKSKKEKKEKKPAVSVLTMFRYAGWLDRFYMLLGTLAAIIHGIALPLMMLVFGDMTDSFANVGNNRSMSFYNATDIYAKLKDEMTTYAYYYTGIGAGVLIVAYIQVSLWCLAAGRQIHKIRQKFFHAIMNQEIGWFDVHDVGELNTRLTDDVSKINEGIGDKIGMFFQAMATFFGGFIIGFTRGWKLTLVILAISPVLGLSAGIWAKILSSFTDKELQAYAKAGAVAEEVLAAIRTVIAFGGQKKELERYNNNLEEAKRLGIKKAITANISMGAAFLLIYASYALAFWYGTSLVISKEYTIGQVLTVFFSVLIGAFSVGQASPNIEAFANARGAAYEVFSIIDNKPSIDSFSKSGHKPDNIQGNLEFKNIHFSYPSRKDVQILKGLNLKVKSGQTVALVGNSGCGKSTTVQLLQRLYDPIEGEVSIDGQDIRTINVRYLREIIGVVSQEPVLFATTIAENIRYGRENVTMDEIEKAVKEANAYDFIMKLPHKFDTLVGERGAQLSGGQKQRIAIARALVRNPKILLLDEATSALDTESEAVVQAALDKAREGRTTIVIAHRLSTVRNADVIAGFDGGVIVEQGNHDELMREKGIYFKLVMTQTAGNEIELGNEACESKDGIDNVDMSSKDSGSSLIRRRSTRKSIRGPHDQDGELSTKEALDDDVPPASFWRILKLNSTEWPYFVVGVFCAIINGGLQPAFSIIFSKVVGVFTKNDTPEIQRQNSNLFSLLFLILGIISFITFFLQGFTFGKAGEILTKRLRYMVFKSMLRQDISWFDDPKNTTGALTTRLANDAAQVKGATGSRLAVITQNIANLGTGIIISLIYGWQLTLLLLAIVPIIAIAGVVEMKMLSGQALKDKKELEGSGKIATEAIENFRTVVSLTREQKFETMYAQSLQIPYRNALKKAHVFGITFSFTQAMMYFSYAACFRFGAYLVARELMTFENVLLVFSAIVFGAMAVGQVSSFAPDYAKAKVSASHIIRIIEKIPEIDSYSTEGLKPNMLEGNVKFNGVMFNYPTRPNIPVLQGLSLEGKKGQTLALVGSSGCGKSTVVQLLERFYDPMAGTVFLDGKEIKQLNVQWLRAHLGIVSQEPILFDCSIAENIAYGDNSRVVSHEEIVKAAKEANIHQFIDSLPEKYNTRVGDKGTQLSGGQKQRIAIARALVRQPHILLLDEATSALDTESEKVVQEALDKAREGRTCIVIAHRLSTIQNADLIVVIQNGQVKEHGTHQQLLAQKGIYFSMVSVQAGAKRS
Chain of human PDE2A1 (O00408 other isoform, or with tags, fused parts or gaps): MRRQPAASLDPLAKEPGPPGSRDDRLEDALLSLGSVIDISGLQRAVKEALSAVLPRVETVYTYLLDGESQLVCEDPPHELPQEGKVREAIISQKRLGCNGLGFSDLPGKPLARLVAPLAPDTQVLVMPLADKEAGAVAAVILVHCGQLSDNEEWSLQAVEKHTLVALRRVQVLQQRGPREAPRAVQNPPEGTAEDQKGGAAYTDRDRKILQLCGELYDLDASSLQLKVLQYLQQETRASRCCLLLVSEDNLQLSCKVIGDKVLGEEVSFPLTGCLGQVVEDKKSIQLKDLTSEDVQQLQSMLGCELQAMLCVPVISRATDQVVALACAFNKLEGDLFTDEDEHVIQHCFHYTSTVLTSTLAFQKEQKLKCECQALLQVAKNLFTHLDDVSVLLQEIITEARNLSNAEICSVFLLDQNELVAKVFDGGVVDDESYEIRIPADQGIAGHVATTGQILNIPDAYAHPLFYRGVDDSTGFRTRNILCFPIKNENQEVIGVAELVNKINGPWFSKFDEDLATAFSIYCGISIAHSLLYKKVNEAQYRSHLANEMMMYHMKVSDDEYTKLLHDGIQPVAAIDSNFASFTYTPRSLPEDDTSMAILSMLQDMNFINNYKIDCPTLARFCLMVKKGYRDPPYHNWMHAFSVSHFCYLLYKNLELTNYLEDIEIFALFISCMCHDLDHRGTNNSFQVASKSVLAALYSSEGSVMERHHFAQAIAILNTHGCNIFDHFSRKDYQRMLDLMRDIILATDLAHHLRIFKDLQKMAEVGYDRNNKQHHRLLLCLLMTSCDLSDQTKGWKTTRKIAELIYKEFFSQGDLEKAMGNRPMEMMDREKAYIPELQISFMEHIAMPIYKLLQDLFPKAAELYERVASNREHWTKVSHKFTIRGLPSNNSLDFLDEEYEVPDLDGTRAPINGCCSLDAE

For the molecule `CN(C)c1nc(C(=O)NC(c2ccc(SC(F)(F)F)c(F)c2)C2(C)CC2)cc(=O)[nH]1` (single isomer, unassigned) [Example 120, (R)- or (S)-2-(dimethylamino)-N-[{3-fluoro-4-[(trifluoromethyl)sulfanyl]phenyl}(1-methylcyclopropyl)methyl]-6-oxo-1,6-dihydropyrimidine-4-carboxamide], the Ki is 1.8 nM at Rhesus PDE2A3 (setting [2]) and 1.9 nM at human PDE2A1 (setting [3]). The efflux ratio at 1 μM on P-glycoprotein (P-gp) amounted to 27.3; in data set [1] it was 47.2.
Take `COc1cc(C(F)(F)F)ccc1C(C)(C)NC(=O)c1cc(=O)[nH]c(N(C)C)n1` [Example 79, 2-(dimethylamino)-N-{1-[2-methoxy-4-(trifluoromethyl)phenyl]-1-methylethyl}-6-oxo-1,6-dihydropyrimidine-4-carboxamide]: the Ki is 6.4 nM at Rhesus PDE2A3 (setting [2]) and 7.7 nM at human PDE2A1 (setting [3]). Also, the efflux ratio at 1 μM at P-glycoprotein (P-gp) amounted to 0.9; in data set [1], 6.2.
As for `C[C@@H](NC(=O)c1cc(=O)[nH]c(N2CC[C@H](F)C2)n1)c1ccc(C(F)(F)F)cc1` [Example 12, 2-((S)-3-fluoropyrrolidin-1-yl)-6-oxo-N—((R)-1-(4-(trifluoromethyl)phenyl)ethyl)-1,6-dihydropyrimidine-4-carboxamide], the figures for the Ki on Rhesus PDE2A3 (setting [4]) and at human PDE2A1 (setting [5]) were 4.5 nM and 1.8 nM, respectively. Further, the results for the efflux ratio at 1 μM (on P-glycoprotein (P-gp); in data set [1]) were 0.7 and 9, respectively.
For the molecule `CN(C)c1nc(C(=O)N[C@@H](c2ccc(OC(F)(F)F)c(F)c2)C2CC2)cc(=O)[nH]1` [Example 110, N-{(1R)-cyclopropyl[3-fluoro-4-(trifluoromethoxy)phenyl]methyl}-2-(dimethylamino)-6-oxo-1,6-dihydropyrimidine-4-carboxamide], the Ki on Rhesus PDE2A3 (setting [4]) is 0.48 nM; on Rhesus PDE2A3 (setting [2]), 0.96 nM; at human PDE2A1 (setting [3]) it was 1.3 nM. Further, the efflux ratio at 1 μM worked out at 0.5 at P-glycoprotein (P-gp) and 3.5 in data set [1].
In the case of `CN(C)c1nc(C(=O)N[C@@H](c2ccc(S(F)(F)(F)(F)F)cc2)C(C)(C)C)cc(=O)[nH]1` [Example 38, 2-(dimethylamino)-N-{(1R)-2,2-dimethyl-1-[4-(pentafluoro-λ^6-sulfanyl)phenyl]propyl}-6-oxo-1,6-dihydropyrimidine-4-carboxamide], the Ki on Rhesus PDE2A3 (setting [2]) was 0.11 nM; on human PDE2A1 (setting [3]) it was 0.14 nM. For the same molecule, the efflux ratio at 1 μM at P-glycoprotein (P-gp) was found to be 1.
Take `COCC1CCN(c2nc(C(=O)N[C@@H](c3ccc(C(F)(F)F)cc3)C(C)(C)C)cc(=O)[nH]2)C1` (single isomer, unassigned) [Example 176, (R)- or (S)-N-{(1R)-2,2-dimethyl-1-[4-(trifluoromethyl)phenyl]propyl}-2-[3-(methoxy-methyl)pyrrolidin-1-yl]-6-oxo-1,6-dihydro-pyrimidine-4-carboxamide]: at human PDE2A1 (setting [3]), the Ki was 0.38 nM. Besides, the efflux ratio at 1 μM on P-glycoprotein (P-gp) came to 5.4; in data set [1], 19.1.
The corresponding values for `CNc1nc(C(=O)N[C@@H](c2ccc(C(F)(F)F)cc2)C(C)(C)C)cc(=O)[nH]1` [Example 158, N-{(1R)-2,2-dimethyl-1-[4-(trifluoromethyl)phenyl]propyl}-2-(methylamino)-6-oxo-1,6-dihydropyrimidine-4-carboxamide] are 0.85 nM, 7.8 and 24.4.
Regarding `CO[C@H]1CCN(c2nc(C(=O)N[C@@H](c3ccc(C(F)(F)F)cc3)C(C)(C)C)cc(=O)[nH]2)C1` [Example 170, N-{(1R)-2,2-dimethyl-1-[4-(trifluoromethyl)phenyl]propyl}-2-[(3S)-3-methoxypyrrolidin-1-yl]-6-oxo-1,6-dihydropyrimidine-4-carboxamide], the Ki at human PDE2A1 (setting [3]) came out at 0.11 nM. Moreover, the values for the efflux ratio at 1 μM (at P-glycoprotein (P-gp); in data set [1]) were 5.6 and 10.7, respectively.
`CN(C)c1nc(C(=O)N[C@@H](c2ccc(OC(F)F)cc2)C2CC2)cc(=O)[nH]1` [Example 32, N-{(R)-cyclopropyl[4-(difluoromethoxy)phenyl]methyl}-2-(dimethylamino)-6-oxo-1,6-dropyrimidine-4-carboxamide]: the Ki at Rhesus PDE2A3 (setting [2]) was 6.4 nM; on human PDE2A1 (setting [3]) it was 5.3 nM. At P-glycoprotein (P-gp), the efflux ratio at 1 μM is 1.1.
For `CN(C)c1nc(C(=O)N[C@@H](c2ccc(C(F)F)cc2)C2CC2)cc(=O)[nH]1` [Example 64, N-{(R)-cyclopropyl[4-(difluoromethyl)phenyl]methyl}-2-(dimethylamino)-6-oxo-1,6-dihydropyrimidine-4-carboxamide], at human PDE2A1 (setting [3]), the Ki amounted to 7.4 nM. For the same molecule, the efflux ratio at 1 μM was 0.8 on P-glycoprotein (P-gp) and 5.6 in data set [1].
Consider `CC(C)[C@@H](NC(=O)c1cc(=O)[nH]c(N(C)C)n1)c1ccc(OC(F)F)cc1` [Example 33, N-{(1R)-1-[4-(difluoromethoxy)phenyl]-2-methylpropyl}-2-(dimethylamino)-6-oxo-1,6-dihydropyrimidine-4-carboxamide], for which the Ki on Rhesus PDE2A3 (setting [2]) was 2.7 nM; on human PDE2A1 (setting [3]), 2 nM. The efflux ratio at 1 μM on P-glycoprotein (P-gp) came to 1.3.
On to `CN(C)c1nc(C(=O)N[C@@H](c2ccc(C(F)F)c(F)c2)C2(C)CC2)cc(=O)[nH]1` [Example 59, N-[(R)-[4-(difluoromethyl)-3-fluorophenyl](1-methylcyclopropyl)methyl]-2-(dimethylamino)-6-oxo-1,6-dihydropyrimidine-4-carboxamide], for which the Ki on human PDE2A1 (setting [3]) turned out to be 2 nM. The efflux ratio at 1 μM on P-glycoprotein (P-gp) was found to be 0.8; in data set [1], 4.2.
Regarding `CN(C)c1nc(C(=O)N[C@@H](c2ccc(C3CC3)cc2)C2CC2)cc(=O)[nH]1` [Example 115, N-[(R)-cyclopropyl(4-cyclopropylphenyl)methyl]-2-(dimethylamino)-6-oxo-1,6-dihydropyrimidine-4-carboxamide], the Ki was 1 nM at Rhesus PDE2A3 (setting [2]) and 0.76 nM on human PDE2A1 (setting [3]). Further, the efflux ratio at 1 μM on P-glycoprotein (P-gp) was found to be 0.3.
`CO[C@@H]1CCN(c2nc(C(=O)N[C@@H](c3ccc(C(F)(F)F)cc3)C(C)(C)C)cc(=O)[nH]2)C1` [Example 171, N-{(1R)-2,2-dimethyl-1-[4-(trifluoromethyl)phenyl]propyl}-2-[(3R)-3-methoxypyrrolidin-1-yl]-6-oxo-1,6-dihydropyrimidine-4-carboxamide]: the Ki on human PDE2A1 (setting [3]) was found to be 1.4 nM. Also, the efflux ratio at 1 μM came out at 3.1 on P-glycoprotein (P-gp) and 24.4 in data set [1].
For `C[C@@H](NC(=O)c1cc(=O)[nH]c(N(C)C)n1)c1ccc(OC(F)(F)F)c(Cl)c1` [Example 3, (R)—N-(1-(3-chloro-4-(trifluoromethoxy)phenyl)ethyl)-2-(dimethylamino)-6-oxo-1,6-dihydropyrimidine-4-carboxamide], the Ki on Rhesus PDE2A3 (setting [4]) turned out to be 0.82 nM; at Rhesus PDE2A3 (setting [2]) it was 1.5 nM; at human PDE2A1 (setting [3]) it was 1.6 nM.
Take `CN(C)c1nc(C(=O)N[C@@H](c2ccc(C(F)F)c(F)c2)C2CC2)cc(=O)[nH]1` [Example 66, N-{(R)-cyclopropyl[4-(difluoromethyl)-3-fluorophenyl]methyl}-2-(dimethylamino)-6-oxo-1,6-dihydropyrimidine-4-carboxamide]: the Ki at human PDE2A1 (setting [3]) was 5 nM. The results for the efflux ratio at 1 μM (at P-glycoprotein (P-gp); in data set [1]) were 0.8 and 6.1, respectively.
Turning to `CC(C)[C@@H](NC(=O)c1cc(=O)[nH]c(N(C)C)n1)c1ccc(C(F)F)cc1` [Example 63, N-{(1R)-1-[4-(difluoromethyl)phenyl]-2-methylpropyl}-2-(dimethylamino)-6-oxo-1,6-dihydropyrimidine-4-carboxamide], the Ki on human PDE2A1 (setting [3]) was 1.9 nM. Besides, the efflux ratio at 1 μM at P-glycoprotein (P-gp) was 1.7; in data set [1], 10.2.
For the molecule `CN(C)c1nc(C(=O)NC(C)(C)c2ccc(S(F)(F)(F)(F)F)cc2)cc(=O)[nH]1` [Example 118, 2-(Dimethylamino)-N-{1-methyl-1-[4-(pentafluoro-λ^6-sulfanyl)phenyl]ethyl}-6-oxo-1,6-dihydropyrimidine-4-carboxamide], the results for the Ki on Rhesus PDE2A3 (setting [2]) and at human PDE2A1 (setting [3]) were 224 nM and 140 nM, respectively.
As to `C[C@@H](NC(=O)c1cc(=O)[nH]c(NC2CC2)n1)c1ccc(C(F)(F)F)cc1` [Example 140, 2-(cyclopropylamino)-6-oxo-N-{(1R)-1-[4-(trifluoromethyl)phenyl]ethyl}-1,6-dihydropyrimidine-4-carboxamide], the values for the Ki at Rhesus PDE2A3 (setting [4]) and at human PDE2A1 (setting [5]) were 54 nM and 51 nM, respectively.
As to `CC(C)(C)[C@@H](NC(=O)c1cc(=O)[nH]c(N)n1)c1ccc(C(F)(F)F)cc1` [Example 157, 2-amino-N-{(1R)-2,2-dimethyl-1-[4-(trifluoromethyl)phenyl]propyl}-6-oxo-1,6-dihydropyrimidine-4-carboxamide], the inhibitory constant (Ki) at human PDE2A1 (setting [3]) stood at 6.3 nM. For the same molecule, the efflux ratio at 1 μM stood at 13.9 at P-glycoprotein (P-gp) and 34 in data set [1].
Take `CCN(CC)c1nc(C(=O)N[C@H](C)c2ccc(C(F)(F)F)cc2)cc(=O)[nH]1` [Example 142, 2-(diethylamino)-6-oxo-N-{(1R)-1-[4-(trifluoromethyl)phenyl]ethyl}-1,6-dihydropyrimidine-4-carboxamide]: the Ki worked out at 23 nM on Rhesus PDE2A3 (setting [4]) and 16 nM at human PDE2A1 (setting [5]).
